Assay results: US20080138393A1, “Water soluble extract of spinach for prevention and repair of DNA damage” (Access to Business Group International LLC, priority 2006, published 2008)

Experiments:
[1] = Oxygen radical absorbency capacity (ORAC)
THP-1 monocytes = assay: Protection from oxidative stress, MitoSOX Red mitochondrial superoxide indicator, flow cytometry; format: cell-based; conditions: 3 hours treatment, then H2O2 challenge 3 hours, sample 100 ug/ml final, positive control 100 uM, 0% = challenged negative control, 100% = unchallenged normal control
Excerpt: The assay described in this experiment measures oxidative stress occurring within the mitochondria. As discussed above, the biochemical reactions used by mitochondria to generate energy yielding ATP molecules also produce highly oxidizing superoxide free radical as a by-product. Using flow cytometry, the below example measures the protection various test samples provide from oxidative stress by monitoring the status of superoxide within mitochondria following treatment with the test materials.
MitoSOX Red mitochondrial superoxide indicator (Invitrogen cat#M36008) is a fluorescent dye that is selectively taken up by mitochondria. Once in the mitochondria, MitoSOX reacts with superoxide free radical to form a fluorescent product (excitation/emission maxima=510/580 nm) that binds to mitochondrial nucleic acids. A higher fluorescence reading corresponds to a higher level of superoxide free radical being present within the mitochondria.
Cell Culture: One 6 well plate is used per sample. Multiple plates may be prepared simultaneously. Refer to Table I for a plate description. THP-1 monocytes (ATCC cat# TIB-202) are plated at 1.5×10^6 cells/well in 6 well plates (contained in 2 ml/well RMPI 1640 media supplemented with 10% FBS) and incubated for 1 hour before treating.
Treatment: Glutathione monoethylester (GMEE, 100 uM final concentration) is used as a positive control. […]

Compound | oxygen radical absorbency capacity (ORAC) [1] | protection from oxidative stress (THP-1 monocytes) [%]
COC(=O)c1cc(O)ccc1O [Methylgentisate, methylgentisate] | 25,605 μmol Teq/g | 
CCOC(=O)CNC(=O)[C@H](CS)NC(=O)CC[C@H](N)C(=O)O [glutathione methyl ester] |  | 35
